According to patent US12396459B2, “Synergistically effective herbicide composition comprising pyridate and at least one defined 4-HPPD inhibitor” (BELCHIM CROP PROTECTION NV, priority 2018, dated 2025):
Like-named read-outs stand apart in the source and are kept apart here.

Assays:
Assay type in all cases: in vivo
Brassica napus = experiment: Field trial post-emergence in maize: BRSNN; conditions: # = 1, g a.c./ha: PYR 300, MES 100, PYR + MES 300 + 90
Description: (§1) Herbicidal activity of herbicide compositions according to the first aspect of the present invention with regard to different types of unwanted vegetation was determined during trials performed on test fields (field trials). Individual compositions comprising pyridate and individual compositions comprising a defined 4-HPPD inhibitor are compared with a herbicide composition according to the invention comprising both pyridate and a defined 4-HPPD inhibitor. The expected activity of the combination of the active compounds pyridate and a defined 4-HPPD inhibitor is calculated according to above mentioned calculation method by Colby, in order to evaluate a synergistic effect between pyridate and a defined 4-HPPD inhibitor.
(§2) Herbicidal activity was determined by applying herbicide compositions on emerged unwanted vegetation on fields where maize was cultivated. Pyridate and a defined 4-HPPD inhibitor were applied as a tank mixture by mixing these active compounds prior to use in a spray tank. The corresponding mixture was in the form of a spray liquor. Besides, spray liquors of individual compositions comprising pyridate and of individual compositions comprising a defined 4-HPPD inhibitor were used. Test plants of unwanted vegetation with a growth stage corresponding to BBCH 10-18 (according to the extended BBCH-scale) were sprayed with the active compound preparations such that particular desired amounts of active compounds are applied per unit area. Spray liquor was diluted with water to arrive at an application volume of 50 to 450 L/ha. At a specified number of days after application (DAA), the degree of damage to the unwanted vegetation is rated in % of plants of unwanted vegetation that were killed, which was assessed by visually controlling the plants.

Capsella bursa-pastoris = experiment: Field trial post-emergence in maize: CAPBP
Description: as §1, §2

Datura stramonium = experiment: Field trial post-emergence in maize: DATST; conditions: 7-14 DAA; # = 2; g a.c./ha: PYR 300, MES 100, PYR + MES 300 + 90
Description: as §1
(§3) Herbicidal activity was determined by applying herbicide compositions on emerged unwanted vegetation on fields where maize was cultivated. Pyridate and a defined 4-HPPD inhibitor were applied as a tank mixture by mixing these active compounds prior to use in a spray tank. The corresponding mixture was in the form of a spray liquor. […] At a specified number of days after application (DAA), the degree of damage to the unwanted vegetation is rated in % of plants of unwanted vegetation that were killed, which was assessed by visually controlling the plants.

Echinochloa crus-galli = experiment: Field trial post-emergence in maize: ECHCG; conditions: for herbicidal effect (h.e.): g a.c./ha: PYR 300, MES 100, PYR + MES 300 + 90
Description: as §1, §2

Poa annua = experiment: Field trial post-emergence in maize: POAAN; conditions: for herbicidal effect (h.e.): g a.c./ha: PYR 300, MES 100, PYR + MES 300 + 90
Description: as §1, §2

Fallopia convolvulus = experiment: Field trial post-emergence in maize: POLCO
Description: as §1, §2

Portulaca oleracea = experiment: Field trial post-emergence in maize: POROL; conditions: # = 1, g a.c./ha: PYR 300, MES 100, PYR + MES 300 + 90
Description: as §1, §2

Sorghum halepense = experiment: Field trial post-emergence in maize: SORHA; conditions: 7-14 DAA; # = 1; g a.c./ha: PYR 300, MES 100, PYR + MES 300 + 90
Description: as §1, §3

Stachys arvensis = experiment: Field trial post-emergence in maize: STAAR; conditions: 7-14 DAA; # = 1; g a.c./ha: PYR 300, MES 100, PYR + MES 300 + 90
Description: as §1, §3

Amaranthus retroflexus = experiment: Field trial post-emergence in maize: AMARE; conditions: 13-14 DAA; # = 1; g a.c./ha: PYR 450, MES 144, PYR + MES 450 + 144
Description: as §1, §2

Veronica persica = experiment: Examples 6-8 herbicidal effect: VERPE; conditions: 7 DAA
Solanum nigrum = experiment: Examples 6-8 herbicidal effect: SOLNI; conditions: 7 DAA
Matricaria chamomilla = experiment: Examples 6-8 herbicidal effect: MATCH; conditions: 7 DAA
Chenopodium album = experiment: Examples 6-8 herbicidal effect: CHEAL; conditions: 7 DAA
Setaria verticillata = experiment: Examples 6-8 herbicidal effect: SETVE; conditions: 7 DAA
Convolvulus arvensis = experiment: Field trial post-emergence in maize: CONAR
Description: as §1, §2
(§4) Example 1 concerns a herbicide composition comprising a combination of pyridate and mesotrione, which was applied post-emergence on unwanted vegetation on a field where maize was cultivated, according to the test conditions mentioned above.

Erodium ciconium = experiment: Field trial post-emergence in maize: EROCC
Description: as §1, §2, §4

Galium aparine = experiment: Field trial post-emergence in maize: GALAP
Description: as §1, §2, §4

[1] = g a.c./ha: MES 50, PYR + SMO 300 + 800
[2] = g a.c./ha: MES 80, PYR + MES 300 + 50

In the case of `CS(=O)(=O)c1ccc(C(=O)C2C(=O)CCCC2=O)c([N+](=O)[O-])c1` [MES, 2-(4-methylsulfonyl-2-nitrobenzoyl) cyclohexane-1,3-dione], the “herbicidal effect (h.e.)” value (Brassica napus; 7-14 DAA) is reported as 86%, the “herbicidal effect (h.e.)” value (Brassica napus; 18-28 DAA) is reported as 85% and the “herbicidal effect (h.e.)” value (Brassica napus; 31-48 DAA) is reported as 84%. For the same molecule, the MES h.e. (Capsella bursa-pastoris) was 97%, the “herbicidal effect (h.e.)” value (Capsella bursa-pastoris; 7-14 DAA, # = 3, g a.c./ha: PYR 300, MES 100, PYR + MES 300 + 90) was 90% and the MES h.e. (Capsella bursa-pastoris; CAPBP 14-20 DAA 300 g a.c./ha) was 97%. For the same molecule, the MES h.e. (Capsella bursa-pastoris; CAPBP 14-20 DAA 600 g a.c./ha) was 97%, the MES h.e. (Capsella bursa-pastoris; CAPBP 24-31 DAA 45 g a.c./ha) was 97% and the “herbicidal effect (h.e.)” value (Datura stramonium) was 98%. For the same molecule, the “herbicidal effect (h.e.)” value (Echinochloa crus-galli; 7-14 DAA, # = 9) was 67%, the “herbicidal effect (h.e.)” value (Echinochloa crus-galli; 18-28 DAA, # = 14) was 51% and the “herbicidal effect (h.e.)” value (Echinochloa crus-galli; 31-48 DAA, # = 13) was 50%. For the same molecule, the MES h.e. (Echinochloa crus-galli; ECHCG 14-20 DAA 45 g a.c./ha) was 86%, the MES h.e. (Echinochloa crus-galli; ECHCG 14-20 DAA 90 g a.c./ha) was 95% and the MES h.e. (Echinochloa crus-galli; ECHCG 14-20 DAA 135 g a.c./ha) was 97%. The MES h.e. (Echinochloa crus-galli; ECHCG 24-31 DAA 45 g a.c./ha) was 80%, the MES h.e. (Echinochloa crus-galli; ECHCG 24-31 DAA 90 g a.c./ha) was 95% and the MES h.e. (Echinochloa crus-galli; ECHCG 24-31 DAA 135 g a.c./ha) was 97%. The “herbicidal effect (h.e.)” value (Poa annua; 7-14 DAA, # = 2) was 39%, the “herbicidal effect (h.e.)” value (Poa annua; 18-28 DAA, # = 3) was 36% and the “herbicidal effect (h.e.)” value (Poa annua; 31-48 DAA, # = 2) was 27%. For the same molecule, the MES h.e. (Poa annua; POAAN 14-20 DAA 45 g a.c./ha) was 24%, the MES h.e. (Poa annua; POAAN 14-20 DAA 90 g a.c./ha) was 48% and the MES h.e. (Poa annua; POAAN 14-20 DAA 135 g a.c./ha) was 58%. For the same molecule, the MES h.e. (Poa annua; POAAN 24-31 DAA 45 g a.c./ha) was 17%, the MES h.e. (Poa annua; POAAN 24-31 DAA 90 g a.c./ha) was 22% and the MES h.e. (Poa annua; POAAN 24-31 DAA 135 g a.c./ha) was 38%. The “herbicidal effect (h.e.)” value (Fallopia convolvulus; 7-14 DAA, # = 5, g a.c./ha: PYR 300, MES 100, PYR + MES 300 + 90) was 68%, the “herbicidal effect (h.e.)” value (Fallopia convolvulus; 13-14 DAA, # = 1, g a.c./ha: PYR 450, MES 144, PYR + MES 450 + 144) was 92% and the “herbicidal effect (h.e.)” value (Fallopia convolvulus; 18-28 DAA, # = 8, g a.c./ha: PYR 300, MES 100, PYR + MES 300 + 90) was 77%. For the same molecule, the “herbicidal effect (h.e.)” value (Fallopia convolvulus; 31-48 DAA, # = 8, g a.c./ha: PYR 300, MES 100, PYR + MES 300 + 90) was 68%, the MES h.e. (Fallopia convolvulus; POLCO 14-20 DAA 45 g a.c./ha) was 77% and the MES h.e. (Fallopia convolvulus; POLCO 14-20 DAA 90 g a.c./ha) was 89%. For the same molecule, the MES h.e. (Fallopia convolvulus; POLCO 24-31 DAA 45 g a.c./ha) was 80%, the MES h.e. (Fallopia convolvulus; POLCO 24-31 DAA 135 g a.c./ha) was 97% and the “herbicidal effect (h.e.)” value (Portulaca oleracea; 7-14 DAA) was 50%. For the same molecule, the “herbicidal effect (h.e.)” value (Portulaca oleracea; 18-28 DAA) was 5%, the “herbicidal effect (h.e.)” value (Sorghum halepense) was 42% and the “herbicidal effect (h.e.)” value (Stachys arvensis) was 54%. The “herbicidal effect (h.e.)” value (Amaranthus retroflexus) was 45%, the “herbicidal effect (h.e.)” value (Veronica persica; [1]) was 33% and the “herbicidal effect (h.e.)” value (Veronica persica; [2]) was 57%. The “herbicidal effect (h.e.)” value (Solanum nigrum; [1]) was 67%, the “herbicidal effect (h.e.)” value (Solanum nigrum; [2]) was 54% and the “herbicidal effect (h.e.)” value (Matricaria chamomilla; [1]) was 25%. For the same molecule, the “herbicidal effect (h.e.)” value (Matricaria chamomilla; [2]) was 53%, the “herbicidal effect (h.e.)” value (Chenopodium album; [1]) was 77% and the “herbicidal effect (h.e.)” value (Chenopodium album; [2]) was 92%. The “herbicidal effect (h.e.)” value (Setaria verticillata; [1]) was 0%, the “herbicidal effect (h.e.)” value (Setaria verticillata; [2]) was 3% and the MES h.e. (Convolvulus arvensis; CONAR 14-20 DAA 45 g a.c./ha) was 40%. It also gave an MES h.e. (Convolvulus arvensis; CONAR 14-20 DAA 90 g a.c./ha) of 68%, an MES h.e. (Convolvulus arvensis; CONAR 14-20 DAA 135 g a.c./ha) of 83% and an MES h.e. (Convolvulus arvensis; CONAR 24-31 DAA 135 g a.c./ha) of 80%. It also gave an MES h.e. (Erodium ciconium; EROCC 14-20 DAA 90 g a.c./ha) of 32%, an MES h.e. (Erodium ciconium; EROCC 14-20 DAA 135 g a.c./ha) of 33% and an MES h.e. (Galium aparine; GALAP 14-20 DAA 45 g a.c./ha) of 30%. The MES h.e. (Galium aparine; GALAP 14-20 DAA 90 g a.c./ha) was 80%, the MES h.e. (Galium aparine; GALAP 14-20 DAA 135 g a.c./ha) was 92% and the MES h.e. (Galium aparine; GALAP 24-31 DAA 45 g a.c./ha) was 40%. For the same molecule, the MES h.e. (Galium aparine; GALAP 24-31 DAA 90 g a.c./ha) was 90% and the MES h.e. (Galium aparine; GALAP 24-31 DAA 135 g a.c./ha) was 91%.
